{
  "source": "patent US7759334B2",
  "about": "“Soluble forms of amoxicillin and treatment of animals” (Pharmaceutical Solutions, Inc., priority 1999, dated 2010)",
  "key": {"STREP Suis Type 2": {"tested_on": "STREP Suis Type 2", "assay": "Treatment of streptococcus Suis in nursery pigs", "format": "in vivo", "details": "300 pigs, 3 mg/lb for 7 days from 35 days of age", "experimental": "Treatment of streptococcus Suis—a group of 600 pigs was divided into 2 groups of 300. Each group was side by side in a 600 animal nursery room. Group 1 (300) was treated with 3 mg/lb of amoxicillin at 35 days of age for a period of 7 days. Group 2 (300) was treated with a placebo—citric acid/nutrisweet/strawberry flavor at 35 days of age for a period of 7 days. […] Death loss ranged from 3 to 10 percent with poor treatment results."}, "Hermophilus Pawasuis": {"tested_on": "Hermophilus Pawasuis", "assay": "Treatment for Hermophilus Pawasuis in finishing gilts", "format": "in vivo", "details": "500 gilts, 3 mg/# via water", "text": "Treatment for Hermophilus Pawasuis in finishing Gilts—wt. 250#. • Marked Reduction in death loss following 5 day coarse of therapy."}, "[1]": {"details": "cited from earlier work"}, "Enterococci": {"tested_on": "Enterococci", "details": "cited from earlier work"}},
  "data": [
    {"smiles": "CC1(C)S[C@@H]2[C@H](NC(=O)[C@H](N)c3ccc(O)cc3)C(=O)N2[C@H]1C(=O)O", "note": "[amoxicillin]", "values": [
      {"measurement": "Chronic cells @ 50", "setting": "STREP Suis Type 2", "result": 1},
      {"measurement": "Morbidity Number", "setting": "STREP Suis Type 2", "result": 2},
      {"measurement": "Mortality Number", "setting": "STREP Suis Type 2", "result": 0},
      {"measurement": "Morbidity 8-142", "setting": "Hermophilus Pawasuis", "result": 0},
      {"measurement": "Mortality In 14 days", "setting": "Hermophilus Pawasuis", "result": 0},
      {"measurement": "Mortality result in 7 days", "setting": "Hermophilus Pawasuis", "result": 0},
      {"measurement": "Morbidity 0-7", "setting": "Hermophilus Pawasuis; days 0-7", "result": 2},
      {"measurement": "Peak plasma concentration relative to ampicillin", "setting": "[1]; oral administration of the same doses", "result": "two to two and one-half times greater"},
      {"measurement": "Time at which peak plasma concentrations are reached", "setting": "[1]; oral administration", "result": 2, "unit": "h"},
      {"measurement": "Peak concentration in plasma (average)", "setting": "[1]; oral, 250 mg administered", "result": "about 4 μg/ml"}
    ]},
    {"smiles": "CC1(C)S[C@@H]2[C@H](NC(=O)[C@H](N)c3ccccc3)C(=O)N2[C@H]1C(=O)O", "note": "[ampicillin]", "values": [
      {"measurement": "IVIIC for ampicillin averages", "setting": "Enterococci", "result": 1.5, "unit": "mg/mL"}
    ]}
  ]
}
